{"source": "patent US7473772B2", "about": "“Chimeric GB virus B (GBV-B)” (The Board of Regents of The University of Texas System, priority 2003, dated 2009)", "tested_on": "tamarin without a prior history of GBV-B infection", "assay": "Intrahepatic inoculation of synthetic GBV-B RNA into a tamarin; serum GBV-B RNA by real-time quantitative RT-PCR (TaqMan)", "format": "in vivo, Saguinus oedipus", "conditions": "about 60 μg RNA intrahepatic", "excerpt": "Plasmid DNA containing the GBV-B cDNA was purified by isopycnic centrifugation on a CsCl gradient and isolated by ethanol precipitation. The plasmid DNA was linearized at the 3′ terminus of the cDNA insert by digestion with Xho I. Two μg of the linearized DNA was used as template in an in vitro transcription reaction using the Ambion T7 MEGAscript Kit according to the manufacturer's instructions. The integrity of the resultant synthetic RNA product was confirmed by nondenaturing agarose gel electrophoresis.\nApproximately 60 μg of RNA transcribed from the GBV-B cDNA clone was diluted in phosphate buffered saline and injected under direct visualization at laparotomy into the liver of a healthy tamarin without a prior history of GBV-B infection (Saguinus oedipus). Serum samples were collected from the animal weekly beginning at 2 weeks post-inoculation and tested for the presence of GBV-B RNA by real-time quantitative RT-PCR (TaqMan® assay).", "data": [{"substance": "GBV-B cDNA clone: synthetic RNA transcribed from the full-length 9.4 kb GBV-B cDNA clone containing the novel 3′ terminal sequence", "values": [{"measurement": "GBV-B RNA in serum", "setting": "week 2 postinoculation", "value": "8.3 × 10^3 Genome equivalents/ml"}, {"measurement": "GBV-B RNA in serum", "setting": "week 3 postinoculation", "value": "6.6 × 10^5 Genome equivalents/ml"}, {"measurement": "GBV-B RNA in serum", "setting": "week 4 postinoculation", "value": "4.6 × 10^8 Genome equivalents/ml"}]}]}
